The source of these data is patent US11746100B2 (GLOBAL BLOOD THERAPEUTICS, INC., priority 2020, dated 2023).

For orientation: pEC50 means −log10 of the EC50, conventionally taken in molar units. Read a high pEC50 as a small EC50.

The target in the assay is T1, human ferroportin (Homo sapiens, UniProt Q9NP59).
T1 construct: luciferase reporter (read with the Nano-Glo Luciferase Assay System); expressed in transfected cells; host or cells: CHO cells, stably transfected, expression induced with doxycycline
T1 sequence (Q9NP59 1-571): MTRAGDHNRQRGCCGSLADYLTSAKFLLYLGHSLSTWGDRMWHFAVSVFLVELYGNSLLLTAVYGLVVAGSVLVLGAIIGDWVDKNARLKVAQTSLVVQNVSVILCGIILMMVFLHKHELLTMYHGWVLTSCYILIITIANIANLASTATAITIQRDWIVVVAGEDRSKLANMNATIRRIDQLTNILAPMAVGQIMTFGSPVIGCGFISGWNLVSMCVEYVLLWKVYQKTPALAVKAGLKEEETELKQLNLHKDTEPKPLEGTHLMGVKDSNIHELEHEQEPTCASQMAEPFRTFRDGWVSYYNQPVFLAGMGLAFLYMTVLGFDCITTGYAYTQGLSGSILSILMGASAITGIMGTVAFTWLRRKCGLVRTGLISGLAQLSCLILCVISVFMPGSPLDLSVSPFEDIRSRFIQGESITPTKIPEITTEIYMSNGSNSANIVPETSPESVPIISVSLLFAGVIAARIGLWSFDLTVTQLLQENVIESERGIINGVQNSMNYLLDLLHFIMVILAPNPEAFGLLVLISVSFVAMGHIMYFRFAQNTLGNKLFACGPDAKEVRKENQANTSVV
Put plainly: Biological in-vitro ferroportin internalization assay (luciferase reporter). Format: cell-based. Particulars: average pEC50; stably-transfected CHO cell line expressing human ferroportin tagged to a luciferase reporter; 6 h incubation with test compound. An outline of the steps:
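Read-out is Nano-Glo luciferase signal after 6 h compound exposure, with average pEC50 derived. Cells are a stable CHO line carrying luciferase-tagged human ferroportin, pre-loaded 24 h with ferric ammonium citrate and doxycycline-induced for 24 h.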
(In general: In a reporter assay the amount or activity of a reporter protein is the signal.)
With `CN(CC(=O)Nc1cccnc1)c1nc(-c2cc3ccccc3cn2)nc2c1CCC2` [Compound 228], the pEC50 is 7.1.

In turn, `COCCN(C)c1nc(-c2ccccn2)nc2c1CCC2` [Compound 84, N-(2-methoxyethyl)-N-methyl-2-(pyridin-2-yl)-5H,6H,7H-cyclopenta[d]pyrimidin-4-amine] gave a negative-log EC50 (pEC50) of 6.6.

Turning to `CN(CC(=O)Nc1ccc(F)nc1)c1nc(-c2cc3cn[nH]c3cn2)nc2c1CCC2` [Compound 266, N-(6-fluoropyridin-3-yl)-2-[methyl(2-{1H-pyrazolo[3,4-c]pyridin-5-yl}-5H,6H,7H-cyclopenta[d]pyrimidin-4-yl)amino]acetamide], the pEC50 came out at 7.3.

For the compound `CN(CC(=O)Nc1cnn(C)c1)c1nc(-c2cc(OC(F)(F)F)ccn2)nc2c1CCC2` [Compound 231, 2-[methyl({2-[4-(trifluoromethoxy)pyridin-2-yl]-5H,6H,7H-cyclopenta[d]pyrimidin-4-yl})amino]-N-(1-methyl-1H-pyrazol-4-yl)acetamide], the negative logarithm of the EC50 (pEC50) amounted to 6.2.

In the case of `CN(CC(=O)NC(C)(C)C)c1nc(-c2cc3cn(C)nc3cn2)nc2c1CCC2` [Compound 336, N-tert-butyl-2-[methyl(2-{2-methyl-2H-pyrazolo[3,4-c]pyridin-5-yl}-5H,6H,7H-cyclopenta[d]pyrimidin-4-yl)amino]acetamide], the negative logarithm of the EC50 (pEC50) is listed as 7.8.

Turning to `COc1ccc(NC(=O)CN(C)c2nc(-c3cc(OCCO)ccn3)nc3c2CCC3)cn1` [Compound 187, 2-({2-[4-(2-hydroxyethoxy)pyridin-2-yl]-5H,6H,7H-cyclopenta[d]pyrimidin-4-yl}(methyl)amino)-N-(6-methoxypyridin-3-yl)acetamide], the pEC50 turned out to be 7.9.

Regarding `COc1ccc(NC2CCCN(c3nc(-c4ccccn4)nc4c3CCC4)C2)cc1` (centres unmarked) [Compound 11, N-(4-methoxyphenyl)-1-[2-(pyridin-2-yl)-5H,6H,7H-cyclopenta[d]pyrimidin-4-yl]piperidin-3-amine], the negative-log EC50 (pEC50) was found to be 6.3.

Regarding `CN(CC(=O)NCc1ccccc1)c1nc(-c2ccccn2)nc2c1CCC2` [Compound 27, N-benzyl-2-{methyl[2-(pyridin-2-yl)-5H,6H,7H-cyclopenta[d]pyrimidin-4-yl]amino}acetamide], the pEC50 turned out to be 6.8.

The compound `CN(CC(=O)N[C@@H]1CCOC1)c1nc(-c2cc(OCC(C)(C)O)ccn2)nc2c1CCC2` [Compound 422, 2-({2-[4-(2-hydroxy-2-methylpropoxy)pyridin-2-yl]-5H,6H,7H-cyclopenta[d]pyrimidin-4-yl}(methyl)amino)-N-[(3R)-oxolan-3-yl]acetamide] registered a pEC50 of 7.4.

For `CN(CC(=O)NC(C)(C)CO)c1nc(-c2cn(CCCO)cn2)nc2c1CCC2` [Compound 275, N-(1-hydroxy-2-methylpropan-2-yl)-2-({2-[1-(3-hydroxypropyl)-1H-imidazol-4-yl]-5H,6H,7H-cyclopenta[d]pyrimidin-4-yl}(methyl)amino)acetamide], the negative logarithm of the EC50 (pEC50) stood at 7.

Regarding `Clc1ccnc(-c2nc3c(c(N4CCCCCC4)n2)CCC3)c1` [Compound 96, 1-[2-(4-chloropyridin-2-yl)-5H,6H,7H-cyclopenta[d]pyrimidin-4-yl]azepane], the pEC50 is 6.6.

With `CN(CC(=O)NC12CC(C1)C2)c1nc(-c2cc(OCCO)ccn2)nc2c1CCC2` [Compound 349, N-{bicyclo[1.1.1]pentan-1-yl}-2-({2-[4-(2-hydroxyethoxy)pyridin-2-yl]-5H,6H,7H-cyclopenta[d]pyrimidin-4-yl}(methyl)amino)acetamide], the pEC50 was found to be 7.8.

As to `CN(CC(=O)NC(C)(C)C)c1nc(-c2cc(OCCn3ccnc3)ccn2)nc2c1CCC2` [Compound 465, N-tert-butyl-2-[(2-{4-[2-(1H-imidazol-1-yl)ethoxy]pyridin-2-yl}-5H,6H,7H-cyclopenta[d]pyrimidin-4-yl)(methyl)amino]acetamide], the pEC50 was 8.3.

Compound `COc1ccnc(-c2nc3c(c(N(C)[C@H]4CCN(c5ccccc5)C4=O)n2)CCC3)c1` [Compound 205, (3S)-3-{[2-(4-methoxypyridin-2-yl)-5H,6H,7H-cyclopenta[d]pyrimidin-4-yl](methyl)amino}-1-phenylpyrrolidin-2-one] registered a negative logarithm of the EC50 (pEC50) of 7.5.

Consider `Cc1ccnc(-c2nc3c(c(N(C)CC(=O)NC(C)(C)C)n2)CCC3)c1` [Compound 24, N-tert-butyl-2-{methyl[2-(4-methylpyridin-2-yl)-5H,6H,7H-cyclopenta[d]pyrimidin-4-yl]amino}acetamide], for which the negative logarithm of the EC50 (pEC50) turned out to be 7.6.

The compound `COc1ccnc(-c2nc3c(c(N(C)CC(=O)N[C@@H]4CCCC[C@H]4O)n2)CCC3)c1` [Compound 141, N-[(1R,2R)-2-hydroxycyclohexyl]-2-{[2-(4-methoxypyridin-2-yl)-5H,6H,7H-cyclopenta[d]pyrimidin-4-yl](methyl)amino}acetamide] displayed a pEC50 of 7.1.

`CN(CC(=O)Nc1cnn(C)c1)c1nc(-c2cc(OC3COC3)ccn2)nc2c1CCC2` [Compound 254, 2-[methyl({2-[4-(oxetan-3-yloxy)pyridin-2-yl]-5H,6H,7H-cyclopenta[d]pyrimidin-4-yl})amino]-N-(1-methyl-1H-pyrazol-4-yl)acetamide] registered a negative-log EC50 (pEC50) of 7.

In the case of `O=C(CNc1nc(-c2ccccn2)nc2c1CCC2)Nc1ccccc1F` [Compound 6, N-(2-fluorophenyl)-2-{[2-(pyridin-2-yl)-5H,6H,7H-cyclopenta[d]pyrimidin-4-yl]amino}acetamide], the negative-log EC50 (pEC50) is reported as 6.5.

In turn, `CC(C)[C@@H](C(=O)NC(C)(C)C)N(C)c1nc(-c2ccccn2)nc2c1CCC2` [Compound 115, (2S)—N-tert-butyl-3-methyl-2-{methyl[2-(pyridin-2-yl)-5H,6H,7H-cyclopenta[d]pyrimidin-4-yl]amino}butanamide] displayed a negative-log EC50 (pEC50) of 7.1.

On to `CC(C)NC(=O)CN(C)c1nc(-c2cc(OCC3(O)CCOCC3)ccn2)nc2c1CCC2` [Compound 444, 2-[(2-{4-[(4-hydroxyoxan-4-yl)methoxy]pyridin-2-yl}-5H,6H,7H-cyclopenta[d]pyrimidin-4-yl)(methyl)amino]-N-(propan-2-yl)acetamide], for which the pEC50 was 7.9.

In turn, `COc1ccnc(-c2nc3c(c(N(C)CC(=O)NC4(C(F)(F)F)CC4)n2)CCC3)c1` [Compound 99, 2-{[2-(4-methoxypyridin-2-yl)-5H,6H,7H-cyclopenta[d]pyrimidin-4-yl](methyl)amino}-N-[1-(trifluoromethyl)cyclopropyl]acetamide] showed a pEC50 of 7.3.

The compound `COc1ccnc(-c2nc3c(c(N(C)CC(=O)Nc4cnn(C)c4)n2)CCC3)c1` [Compound 154, 2-{[2-(4-methoxypyridin-2-yl)-5H,6H,7H-cyclopenta[d]pyrimidin-4-yl](methyl)amino}-N-(1-methyl-1H-pyrazol-4-yl)acetamide] registered a negative-log EC50 (pEC50) of 7.4.

The compound `O=C(NC1CCCCC1)C1CN(c2nc(-c3ccccn3)nc3c2CCC3)C1` [Compound 29, N-cyclohexyl-1-[2-(pyridin-2-yl)-5H,6H,7H-cyclopenta[d]pyrimidin-4-yl]azetidine-3-carboxamide] yielded a pEC50 of 5.9.

In turn, `COc1ccc(NC(=O)CN(C)c2nc(-c3cc4scnc4cn3)nc3c2CCC3)cn1` [Compound 304, N-(6-methoxypyridin-3-yl)-2-[methyl(2-{[1,3]thiazolo[4,5-c]pyridin-6-yl}-5H,6H,7H-cyclopenta[d]pyrimidin-4-yl)amino]acetamide] registered a pEC50 of 6.8.

With `COc1ccc(NC(=O)CN(C)c2nc(-c3cc(OC4COC4)ccn3)nc3c2CCC3)cc1` [Compound 327, N-(4-methoxyphenyl)-2-[methyl({2-[4-(oxetan-3-yloxy)pyridin-2-yl]-5H,6H,7H-cyclopenta[d]pyrimidin-4-yl})amino]acetamide], the pEC50 was 7.9.

In turn, `CN1CC(Oc2ccnc(-c3nc4c(c(N(C)CC(=O)NC(C)(C)C)n3)CCC4)c2)C1` [Compound 416, N-tert-butyl-2-[methyl(2-{4-[(1-methylazetidin-3-yl)oxy]pyridin-2-yl}-5H,6H,7H-cyclopenta[d]pyrimidin-4-yl)amino]acetamide] had a negative logarithm of the EC50 (pEC50) of 8.

Turning to `CC(C)NC(=O)CN(C)c1nc(-c2cc(OCC(C)(C)O)ccn2)nc2c1CCC2(C)C` [Compound 450, 2-({2-[4-(2-hydroxy-2-methylpropoxy)pyridin-2-yl]-7,7-dimethyl-5H,6H,7H-cyclopenta[d]pyrimidin-4-yl}(methyl)amino)-N-(propan-2-yl)acetamide], the pEC50 was found to be 6.4.

Compound `COc1ccnc(-c2nc3c(c(N(C)CC(=O)Nc4ccc(F)nc4)n2)CCC3)c1` [Compound 128, N-(6-fluoropyridin-3-yl)-2-{[2-(4-methoxypyridin-2-yl)-5H,6H,7H-cyclopenta[d]pyrimidin-4-yl](methyl)amino}acetamide] returned a pEC50 of 7.4.

For the compound `CN(CC(=O)NC(C)(C)CO)c1nc(-c2ccccn2)nc2c1CCC2` [Compound 61, N-(1-hydroxy-2-methylpropan-2-yl)-2-{methyl[2-(pyridin-2-yl)-5H,6H,7H-cyclopenta[d]pyrimidin-4-yl]amino}acetamide], the pEC50 worked out at 7.1.
